Ends that are not written are not given here.
Key:
[1] = tested on: CCR7− TEM cells and CCR7+ naïve/TCM cells; experiment: [3H]-thymidine incorporation proliferation of T-cell subsets in presence of ShK-186; format: cell-based, human
Method: FIGS. 2A-2C. […] FIGS. 2A-2B. Naïve/TCM (▪) and TEM (▪) cells were separated based on CCR7 expression and activated in the presence of ShK-186, either immediately after isolation (FIG. 2A) or after an overnight pre-activation to induce the upregulation of either KV1.3 or KCa3.1 (FIG. 2B). FIG. 2C. TEM cells were activated with 10 (◯), 30 (▪), or 90 (▴) μg/ml antigen in the presence of ShK-186. In all aspects, T-cell proliferation was assessed via [3H] thymidine incorporation into the DNA of the dividing cells. Each data point represents mean±SD of triplicates.
The activation of CCR7^− TEM cells induces the upregulation of the Kv1.3 K^+ channel (FIG. 1)^8,9. In contrast, CCR7^+ naïve and central memory T (TCM) cells upregulate a different K^+ channel (KCa3.1) upon activation^8,9,35. The inventors therefore designed selective Kv1.3 blockers and assessed the sensitivity of the different T-cell subsets to Kv1.3 block. […] Without wishing to be bound by theory, this “escape” by naïve/TCM effectors may be due to up-regulation of the calcium-activated KCa3.1 channel that regulates membrane potential and Ca^2+ signaling in naïve/TCM effectors in place of Kv1.38. The significance of this finding is that in some aspects Kv1.3 blockers have an advantage over current immunotherapies because naïve and long-lived TCM cells (the main memory pool) would escape inhibition while TEM cells would be targeted.

Kv1.3 = Kv1.3 (Mus musculus, UniProt P16390); details: literature values; cited from earlier work
[2] = tested on: Kv1.3 versus Kv1.1 and other ion channels; details: cited from earlier work
[3] = tested on: rat models of RA and multiple sclerosis; details: in vivo; cited from earlier work
active plaque psoriasis = details: doses as low at 30 μg/patient 3 times a week subcutaneously; cited from earlier work
[4] = tested on: rodents, non-human primates, healthy humans, and patients; details: systemic administration; Phase 1A and 1B; cited from earlier work
[5] = tested on: viral or bacterial infections in rats; details: rat, in vivo; cited from earlier work
rats = experiment: Side effects of KCa1.1 blockers (urine spots, tremor measurements); format: in vivo, rat; details: single injection
Method: (§1) FIGS. 12A-12E. Blocking KCa1.1 reduces the severity of an animal model of RA. FIG. 12A. Effects of vehicle (□), paxilline (▪, 20 mg/kg), and iberiotoxin (IbTX, ▪, 0.5 mg/kg) in rats with PIA. Injections were given intraperitoneally (paxilline) or subcutaneously (IbTX), every other day, starting at onset of clinical signs. N=18 rats per group. FIG. 12B. Ex vivo invasiveness of FLS isolated from healthy rats or arthritic rats, treated with vehicle or IbTX. N=5 rats per group. FIG. 12C. Representative images from the joints of arthritic rats, treated with vehicle or IbTX, and stained with Safranin O-fast green (red: cartilage & bone marrow; blue: bone). FIG. 12D. Number of urine spots after rats received a single injection of vehicle, paxilline, or IbTX and were gavaged with 1 ml drinking water. N=6 rats per group. FIG. 12E. Representative tremor measurements in rats 10 min after the injection of vehicle, paxilline, or IbTX. *p<0.05, **p<0.01, ***p<0.001.
(§2) The inventors have tested the efficacy and safety of two KCa1.1 blockers, the small molecule paxilline that blocks KCa1.1 regardless of β subunit and the peptide IbTX that blocks only some αβ combinations of KCa1.1.

rat model of RA (PIA) = experiment: Pristane-induced arthritis (PIA) model treated with KCa1.1 blockers; format: in vivo; details: paxilline 20 mg/kg i.p., IbTX 0.5 mg/kg s.c., every other day from onset
Method: as §1, §2

RA-FLS = RA-FLS proliferation and invasion assays; format: cell-based, human; details: supernatants or synthetic peptide
Method: For proliferation assays, RA-FLS are plated into 96 well plates and incubated for 48 hrs in the presence of media supplemented with either LrIbTX or LrIbTX[R34D] supernatants, known concentrations of synthetic IbTX, or the vehicle for IbTX. [3H] thymidine is added during the last 16-18 hrs of culture and the amount of [3H] thymidine incorporated into the DNA collected with a scintillation counter as a measure of cell division.
For invasion assays, RA-FLS are seeded in the upper compartment of a Matrigel-coated transwell and induced to cross into the lower compartment by the addition of FBS. The upper compartment is supplemented with either LrIbTX or LrIbTX[R34D] supernatants, synthetic IbTX, or the vehicle. The number of cells crossing into the lower compartment are counted as a measure of invasiveness.

[6] = Detection of functional IbTX in the circulation of rats by patch-clamp; format: in vivo, rat; details: enteric-coated capsule
Method: CIA is induced in both male and female Lewis rats by their immunization twice at a week interval with porcine collagen II in emulsion with incomplete Freund's adjuvant. Rats are monitored for clinical signs of arthritis and receive an oral bolus of [1×10^7-1×10^9 CFU] LrIbTX or LrIbTX[R34D], or an enteric-coated capsule containing either 0.1 mg/kg body weight synthetic IbTX, IbTX[R34D] or glycerin on the day after the onset of clinical signs. Age- and sex-matched healthy rats are used for comparison. Blood is collected via the saphenous vein or via terminal cardiac puncture 1 hr, 6 hrs, and 24 hrs after gavage. Whole-cell patch-clamp is used to detect and quantify levels of functional IbTX in the serum of the rats.

rat CIA model of RA = experiment: CIA model treated with LrIbTX; format: in vivo; details: daily treatment for 3 weeks from onset
Text: CIA is induced in male and female Lewis rats as described above and the rats monitored for clinical signs of arthritis. Treatment begins at onset of clinical signs, at which time rats are randomly assigned to the different treatment groups: oral LrIbTX, oral LrIbTX[R34D], injected synthetic IbTX, and injected vehicle. Treatment continues daily for 3 weeks. Rats are scored daily for CIA severity with a score of 2 given for each lightly swollen ankle or wrist, 5 for each severely swollen ankle and wrist, and 1 for each red and swollen small joint for a total of 15 per paw. At the end of the 3 weeks of treatment and scoring, rats are euthanized for collection of blood and hind limbs. Blood is used to prepare serum to detect circulating levels of IbTX. For each rat, the left hind limb is used for micro-CT to detect bone damage followed by sectioning for histology to detect cartilage damage (safranin O/Fast Green stain) and synovium inflammation (hematoxylin and eosin stain). The right hind limb is used for the isolation of FLS to assess their proliferation and invasiveness ex vivo, using the methods described above, without further treatment.

KCa1.1 = KCa1.1 (Homo sapiens, UniProt Q12791); details: cited from earlier work
CIA = details: injected; cited from earlier work
[7] = Immunohistochemistry detection of HA tag in spleen after injection; format: in vivo, rat; details: subcutaneous injection, spleens collected 3 hours later
Method: FIGS. 10A-10B. LrS235-HA secretes functionally active HA-tagged ShK-235. FIG. 10A. Representative whole-cell Kv1.3 currents measured by patch-clamp in cells stably expressing Kv1.3 before (control, top trace) and after application of ShK-235-HA (bottom trace). FIG. 10B. Healthy Lewis rats received a subcutaneous injection of either ShK-235-HA (left) or of untagged ShK-235 (right). Their spleens were collected 3 hours later and stained to detect the HA tag in brown (arrows). Scale bar: 50 μm.
Two complementary approaches to directly detect ShK-235 in joints and tissues and assess its action on T lymphocyte proliferation are used. L. reuteri LJ01 has been engineered to express HA-tagged ShK-235 (LrS235-HA), because the low immunogenicity of the peptide has made it impossible to raise antibodies against ShK-235. […] ShK-235-HA was injected to healthy rats and their spleens collected. […] HA-tagged ShK-235 is used to detect and localize ShK-235 in the joints, intestines, and secondary lymphoid organs of rats with CIA.

[8] = cells activated overnight, rested and re-stimulated

Kv1.3, sequence (P16390 whole entry): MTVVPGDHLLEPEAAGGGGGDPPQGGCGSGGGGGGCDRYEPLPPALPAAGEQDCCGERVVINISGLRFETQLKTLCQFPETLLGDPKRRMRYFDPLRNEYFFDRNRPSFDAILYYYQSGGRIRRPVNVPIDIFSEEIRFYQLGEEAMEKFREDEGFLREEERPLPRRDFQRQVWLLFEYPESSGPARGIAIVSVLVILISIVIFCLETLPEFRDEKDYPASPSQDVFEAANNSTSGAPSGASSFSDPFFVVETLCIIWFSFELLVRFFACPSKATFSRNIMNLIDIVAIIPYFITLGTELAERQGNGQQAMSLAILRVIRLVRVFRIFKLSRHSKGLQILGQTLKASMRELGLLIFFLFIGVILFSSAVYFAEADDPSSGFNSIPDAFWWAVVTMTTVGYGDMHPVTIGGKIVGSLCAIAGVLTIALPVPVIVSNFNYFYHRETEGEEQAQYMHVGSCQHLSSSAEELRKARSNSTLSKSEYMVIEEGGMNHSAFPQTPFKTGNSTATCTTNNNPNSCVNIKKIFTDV
KCa1.1, sequence (Q12791 whole entry, species assumed): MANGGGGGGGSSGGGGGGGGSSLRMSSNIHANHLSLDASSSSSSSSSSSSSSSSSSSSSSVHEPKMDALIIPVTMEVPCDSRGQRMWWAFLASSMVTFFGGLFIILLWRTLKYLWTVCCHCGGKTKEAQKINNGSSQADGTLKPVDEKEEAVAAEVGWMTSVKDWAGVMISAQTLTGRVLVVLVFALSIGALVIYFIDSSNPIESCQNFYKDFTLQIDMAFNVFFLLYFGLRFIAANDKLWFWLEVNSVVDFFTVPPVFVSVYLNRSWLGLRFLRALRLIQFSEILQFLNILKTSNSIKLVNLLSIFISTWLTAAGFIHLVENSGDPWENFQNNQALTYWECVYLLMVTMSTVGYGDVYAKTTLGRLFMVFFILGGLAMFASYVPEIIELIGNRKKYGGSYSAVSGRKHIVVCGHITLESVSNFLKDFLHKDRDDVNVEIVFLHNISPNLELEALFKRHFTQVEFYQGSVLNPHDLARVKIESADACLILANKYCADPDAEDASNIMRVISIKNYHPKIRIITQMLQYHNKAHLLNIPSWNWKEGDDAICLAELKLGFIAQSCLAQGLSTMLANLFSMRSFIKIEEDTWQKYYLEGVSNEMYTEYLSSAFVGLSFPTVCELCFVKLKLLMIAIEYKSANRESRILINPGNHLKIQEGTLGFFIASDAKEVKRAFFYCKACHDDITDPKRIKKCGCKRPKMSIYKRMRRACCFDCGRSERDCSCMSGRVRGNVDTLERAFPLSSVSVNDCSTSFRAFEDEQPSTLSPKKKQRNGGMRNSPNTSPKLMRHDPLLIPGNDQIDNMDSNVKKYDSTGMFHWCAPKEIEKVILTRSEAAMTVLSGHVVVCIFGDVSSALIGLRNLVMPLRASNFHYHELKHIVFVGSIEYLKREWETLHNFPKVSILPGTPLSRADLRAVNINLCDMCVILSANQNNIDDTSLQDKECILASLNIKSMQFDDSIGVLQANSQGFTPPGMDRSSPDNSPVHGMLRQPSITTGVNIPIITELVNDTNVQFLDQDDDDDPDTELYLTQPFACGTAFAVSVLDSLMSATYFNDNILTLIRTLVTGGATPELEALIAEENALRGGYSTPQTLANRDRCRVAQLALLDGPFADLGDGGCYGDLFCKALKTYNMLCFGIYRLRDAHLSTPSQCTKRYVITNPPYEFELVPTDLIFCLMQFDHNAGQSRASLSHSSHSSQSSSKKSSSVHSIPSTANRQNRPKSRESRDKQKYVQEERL

Compound: ShK derivative, pTyr-AEEA-RSCIDTIPKSRCTAFQCKHSMKYRLSFCRKTCGTC, amidated C-terminus (SEQ ID NO:11) [ShK-186]
- Sensitivity of TEM cell proliferation to the Kv1.3 blocker [1, 8]: exquisitely sensitive
- Sensitivity of naïve/TCM cell proliferation to the Kv1.3 blocker [1, 8]: resistant
- Fold more effective in suppressing [3H]-thymidine incorporation by TEM cells compared with naïve/TCM cells ([1]; cells from patients with type 1 diabetes or RA, activated immediately after isolation): 10 fold
- IC50 (Kv1.3): 0.07 nM
- Selectivity for Kv1.3 over all other ion channels [2]: ≥ 700 fold
- Selectivity for Kv1.3 versus the closely-related Kv1.1 channel [2]: 100 fold
- Selectivity for Kv1.3 over other channels ([2]; comparator value): 100 fold
- Efficacy [3]: demonstrated efficacy
- Efficacy (active plaque psoriasis): showed efficacy
- Tolerability (active plaque psoriasis): well tolerated
- Safety profile [4]: excellent safety profile
- Effect on clearance of infections [5]: did not prevent the clearance

Compound: CC(C)(O)[C@H]1O[C@H]2CC[C@@]3(C)[C@@](O)(CC[C@H]4Cc5c([nH]c6ccccc56)[C@@]43C)C2=CC1=O [paxilline]
- Side effects (incontinence, tremors) (rats): induces incontinence and tremors

Compound: iberiotoxin (QFTDVDCSVSKECWSVCKDLFGVDRGKCMGKKCRCYQ; not fully specified (residue 1, bridges); cysteine pairing not given here; UniProt P24663 1-37, looked up) [IbTX]
- Reduction of disease severity (rat model of RA (PIA)): effective in reducing disease severity
- Side effects (incontinence, tremors) (rats): No such side effects
- Inhibition of RA-FLS proliferation and invasiveness (RA-FLS): inhibit
- Detection of IbTX in the circulation [6]: transiently detected
- CIA disease severity (rat CIA model of RA): milder disease
- IC50 (KCa1.1): 2 nM
- Efficacy in CIA (CIA): showed efficacy

Compound: IbTX[R34D] (QFTDVDCSVSKECWSVCKDLFGVDRGKCMGKKCDCYQ; ends and bridges not checked; cysteine pairing not given here; UniProt P24663 1-37, looked up, variant R34D)
- Block of KCa1.1 channels (KCa1.1; mutant IbTX): does not block KCa1.1 channels

Compound: ShK-235-HA: HA-tagged ShK-235 (RSCIDTIPKSRCTAFKCKHSIKYRLSFCRKTCGTCA; ends and bridges not checked; also: HA tag (position not given here))
- Detection in spleen sections [7]: detect HA-ShK-235 in spleen sections

Compound: sea anemone Stichodactyla helianthus peptide RSCIDTIPKSRCTAFQCKHSMKYRLSFCRKTCGTC (SEQ ID NO:10) [ShK]
- IC50 (Kv1.3): 0.01 nM

Source: patent publication US20250213627A1, “RECOMBINANT MICROORGANISM-BASED METHODS AND COMPOSITIONS FOR TREATMENT OF DISEASE” (Baylor College of Medicine, priority 2021, published 2025)
